# Data: PubChem BioAssay AID1963834 (Molecular Pharmacology Branch, DTP, NCI, 2024)
# “And” between values parts separate entries of the source, which are not always exact repeats. Equal values may be shown once.
# Test system: 873145-292-R-J1-PDC complex spheroid viability
# Experiment: Anticancer human tumor 873145-292-R-J1-PDC patient-derived renal clear cell carcinoma cell line growth inhibition [POLQ]
# Settings: for viability, T/C: stronger effect = lower value
# Description: Multicellular complex tumor spheroid response to Polymerase (POL) inhibitors (novobiocin, ART-558, RP6685) in combination with a variety of drugs and investigational agents in selected tumor cell lines
# The POL inhibitors (novobiocin, ART-558, and RP6685) were evaluated both individually and in combination with standard of care and investigational anticancer small molecules within a complex spheroid model of solid tumors. . Complex spheroids include a stromal component modeled by human endothelial cells (HUVEC) and fibroblasts modeled by human mesenchymal stem cells (MSCs). The concentration ranges selected for each drug and investigational agent were based upon clinically achievable concentrations if the clinical Cmax of the agent was known.
# Compounds. The drugs and investigational agents: novobiocin (NSC847541), ART-558 (NSC835418), RP-6685 (NSC848927), peposertib (NSC802822), ceralasertib (NSC780249), elimusertib (NSC800525), camonsertib (NSC841442), AZD-1390 (NSC803789), olaparib (NSC753686), talazoparib (NSC767125), rucaparib (NSC756644), sotorasib (NSC818433), MRTX-1133 (NSC836407), SN-38 (NSC673596), topotecan (NSC609699), epotoside (NSC141540), doxorubicin (NSC123127), gemcitabine (NSC613327), 5-fluorouracil (NSC19893), paclitaxel (NSC125973), vemurafenib (NSC761431), MSA-2 (NSC828583), SN-011 (NSC837082), adavosertib (NSC754352), prexasertib (NSC758257), carboplatin (NSC241240) and oxaliplatin (NSC266046), were obtained from the National Cancer Institute (NCI) Developmental Therapeutics Program Chemical Repository (21). The FDA-approved anticancer drug set is available from the Developmental Therapeutics Program at https://dtp.cancer.gov/organization/dscb/obtaining/. […] The stock solutions were prepared in dimethyl sulfoxide (DMSO, Sigma-Aldrich, St. Louis, MO, cat. D2650), except for the platinum compounds which were prepared in saline (Quality Biological, Gaithersburg, MD, cat. 114-055-101), at 800-fold the tested concentration and stored at -70 degrees C prior to their use. All drugs and investigational agents were tested over a range starting from a high concentration at or near the clinical Cmax and decreasing in half-log increments. If the clinical Cmax for an agent had not been determined, the highest concentration tested was 10 microM, except for SN-38, which was tested at a high concentration of 1 microM.
# Cell Culture. All cells were maintained in an incubator at 37 degrees C and 5% CO2 with 95% humidity. The PDC lines were cultured according to standard operating procedures established by the NCI PDMR (https://pdmr.cancer.gov). Table 3 of the manuscript, lists the cell lines along with the number of the three cell types plated to form the mct-spheroids and media for tumor cell growth. After thawing, all PDC lines, except 997537-175-T-J1-PDC and 415267-285-R-J2-PDC, were cultured in Matrigel-coated flasks prepared with a working solution of 1X Ham's F-12 nutrient mix, without supplementation (Thermo Fisher Scientific, cat. 11765054), 100 U/mL penicillin-streptomycin (Thermo Fisher Scientific, cat. 15140122), and 2.5% Matrigel (Corning Inc., Corning, NY, cat. 354248) for the first three passages. The two PDC lines 997537-175-T-J1-PDC and 415267-285-R-J2-PDC were cultured on uncoated flasks. The 857933-349-R-J2-PDC line was cultured in 6C/Colon 1B media containing advanced DMEM/F-12 (Thermo Fisher Scientific, cat. 12634028), 10 mM HEPES (Thermo Fisher Scientific, cat. 15630080), 1X GlutaMAX supplement (Thermo Fisher Scientific, cat. 35050061), 0.1 mg/mL primocin (InvivoGen, San Diego, CA, cat. ant-pm-2), 10% defined fetal bovine serum, heat inactivated (HyClone Laboratories Inc., Logan, UT, cat. SH30070.03HI), 50% L-WRN conditioned media (ATCC, cat. CRL-3276), 1.25 mM N-Acetyl-L-cysteine (Sigma-Aldrich, cat. A9165), 10 mM nicotinamide (Sigma-Aldrich, cat. N0636), 1X B-27 supplement (Thermo Fisher Scientific, cat. 17504044), 1X N-2 supplement (Thermo Fisher Scientific, cat. […]
# 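Also: spheroids exposed to compounds for 7 days before viability readout.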
# 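For viability, T/C in this document: luminescence signal used as surrogate for viable cell content; 100% = DMSO vehicle control viability.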
compound,measurement,setting,value
COc1ccc([C@@H](O)c2cc(-c3ncnc4cc(N5CCOCC5)ccc34)c(F)cc2Cl)nn1,"viability, T/C",compound 0.0316 µM,70.5% and 97.3% and 103%
same,"viability, T/C",compound 0.1 µM,85% and 91.1% and 92.7%
same,"viability, T/C",compound 0.316 µM,86.9% and 84.3% and 87%
same,"viability, T/C",compound 1 µM,66.4% and 79.4% and 67.4%
same,"viability, T/C",compound 3.16 µM,56.9% and 52.8% and 57%
same,"viability, T/C",compound 10 µM,42.3% and 49.3% and 41.6%
same,IC50,curve of compound,5.01 µM and 7.26 µM and 5.06 µM
Nc1ccc(C#CCN(C(=O)Cc2ncc(C(F)(F)F)cc2C(F)(F)F)c2ccc(F)cc2)nn1,"viability, T/C",compound 0.1 µM,101% [middle of 13 runs]
same,"viability, T/C",compound 0.316 µM,101% [middle of 13 runs]
same,"viability, T/C",compound 1 µM,95.2% [middle of 13 runs]
same,"viability, T/C",compound 3.16 µM,103% [middle of 13 runs]
same,"viability, T/C",compound 10 µM,108% [middle of 13 runs]
same,IC50,"compound alone, run of 01/19/2024",> 10 µM
O=C(Nc1ccc(O)c(NS(=O)(=O)c2ccc(F)cc2)c1)c1ccc(-c2ccccc2)cc1,"viability, T/C",compound 0.0316 µM,115% and 109% and 103%
same,"viability, T/C",compound 0.1 µM,97.8% and 105% and 91.7%
same,"viability, T/C",compound 0.316 µM,113% and 107% and 99.3%
same,"viability, T/C",compound 1 µM,105% and 99.7% and 101%
same,"viability, T/C",compound 3.16 µM,105% (2×) and 108%
same,"viability, T/C",compound 10 µM,104% and 99.2% and 98.4%
same,IC50,curve of compound,> 10 µM
CCc1c2c(nc3ccc(O)cc13)-c1cc3c(c(=O)n1C2)COC(=O)[C@]3(O)CC + COC1C(OC(N)=O)C(O)C(Oc2ccc3c(O)c(NC(=O)c4ccc(O)c(CC=C(C)C)c4)c(=O)oc3c2C)OC1(C)C,IC50,"curve of first compound, second compound 0.0316 µM",0.0788 µM
same,IC50,"curve of first compound, second compound 0.1 µM",0.0637 µM
same,IC50,"curve of first compound, second compound 0.316 µM",0.0678 µM
same,IC50,"curve of first compound, second compound 1 µM",0.0504 µM
same,IC50,"curve of first compound, second compound 3.16 µM",0.0598 µM
same,IC50,"curve of first compound, second compound 10 µM",0.0829 µM
same,"viability, T/C","second compound 0.0316 µM, first compound 0.00316 µM",108%
same,"viability, T/C","second compound 0.0316 µM, first compound 0.01 µM",86.7%
same,"viability, T/C","second compound 0.0316 µM, first compound 0.0316 µM",58.6%
same,"viability, T/C","second compound 0.0316 µM, first compound 0.1 µM",47.1%
same,"viability, T/C","second compound 0.0316 µM, first compound 0.316 µM",40.6%
same,"viability, T/C","second compound 0.0316 µM, first compound 1 µM",28.6%
same,"viability, T/C","second compound 0.1 µM, first compound 0.00316 µM",96.4%
same,"viability, T/C","second compound 0.1 µM, first compound 0.01 µM",92.1%
same,"viability, T/C","second compound 0.1 µM, first compound 0.0316 µM",53.7%
same,"viability, T/C","second compound 0.1 µM, first compound 0.1 µM",48.4%
same,"viability, T/C","second compound 0.1 µM, first compound 0.316 µM",36.7%
same,"viability, T/C","second compound 0.1 µM, first compound 1 µM",26.9%
same,"viability, T/C","second compound 0.316 µM, first compound 0.00316 µM",103%
same,"viability, T/C","second compound 0.316 µM, first compound 0.01 µM",83%
same,"viability, T/C","second compound 0.316 µM, first compound 0.0316 µM",59.2%
same,"viability, T/C","second compound 0.316 µM, first compound 0.1 µM",43.2%
same,"viability, T/C","second compound 0.316 µM, first compound 0.316 µM",39.7%
same,"viability, T/C","second compound 0.316 µM, first compound 1 µM",28.6%
same,"viability, T/C","second compound 1 µM, first compound 0.00316 µM",104%
same,"viability, T/C","second compound 1 µM, first compound 0.01 µM",87.2%
same,"viability, T/C","second compound 1 µM, first compound 0.0316 µM",58.1%
same,"viability, T/C","second compound 1 µM, first compound 0.1 µM",36.6%
same,"viability, T/C","second compound 1 µM, first compound 0.316 µM",39.4%
same,"viability, T/C","second compound 1 µM, first compound 1 µM",28.7%
same,"viability, T/C","second compound 3.16 µM, first compound 0.00316 µM",99.8%
same,"viability, T/C","second compound 3.16 µM, first compound 0.01 µM",77.1%
same,"viability, T/C","second compound 3.16 µM, first compound 0.0316 µM",57%
same,"viability, T/C","second compound 3.16 µM, first compound 0.1 µM",42.2%
same,"viability, T/C","second compound 3.16 µM, first compound 0.316 µM",37.6%
same,"viability, T/C","second compound 3.16 µM, first compound 1 µM",27.2%
same,"viability, T/C","second compound 10 µM, first compound 0.00316 µM",99.7%
same,"viability, T/C","second compound 10 µM, first compound 0.01 µM",75.4%
same,"viability, T/C","second compound 10 µM, first compound 0.0316 µM",53.4%
same,"viability, T/C","second compound 10 µM, first compound 0.1 µM",55.4%
same,"viability, T/C","second compound 10 µM, first compound 0.316 µM",39.2%
same,"viability, T/C","second compound 10 µM, first compound 1 µM",26.2%
